pIC50: −log10 of the molar value.
Biological target: MET (Homo sapiens, UniProt P08581)
Assay: pMET (Y1234/[…]) immunoblot densitometry in MET-amplified H1993 and EBC-1 cells, […] h dose response
Assay type: cell-based

Sequence of MET (P08581 25-307): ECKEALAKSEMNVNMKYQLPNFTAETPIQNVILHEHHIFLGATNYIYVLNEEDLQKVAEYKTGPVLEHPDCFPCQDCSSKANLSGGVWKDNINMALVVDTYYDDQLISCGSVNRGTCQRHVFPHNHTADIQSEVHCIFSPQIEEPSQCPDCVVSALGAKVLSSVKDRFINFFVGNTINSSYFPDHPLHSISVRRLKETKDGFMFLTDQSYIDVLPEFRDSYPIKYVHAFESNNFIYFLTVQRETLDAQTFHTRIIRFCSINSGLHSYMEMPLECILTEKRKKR
Sequence of MET (P08581 308-1390): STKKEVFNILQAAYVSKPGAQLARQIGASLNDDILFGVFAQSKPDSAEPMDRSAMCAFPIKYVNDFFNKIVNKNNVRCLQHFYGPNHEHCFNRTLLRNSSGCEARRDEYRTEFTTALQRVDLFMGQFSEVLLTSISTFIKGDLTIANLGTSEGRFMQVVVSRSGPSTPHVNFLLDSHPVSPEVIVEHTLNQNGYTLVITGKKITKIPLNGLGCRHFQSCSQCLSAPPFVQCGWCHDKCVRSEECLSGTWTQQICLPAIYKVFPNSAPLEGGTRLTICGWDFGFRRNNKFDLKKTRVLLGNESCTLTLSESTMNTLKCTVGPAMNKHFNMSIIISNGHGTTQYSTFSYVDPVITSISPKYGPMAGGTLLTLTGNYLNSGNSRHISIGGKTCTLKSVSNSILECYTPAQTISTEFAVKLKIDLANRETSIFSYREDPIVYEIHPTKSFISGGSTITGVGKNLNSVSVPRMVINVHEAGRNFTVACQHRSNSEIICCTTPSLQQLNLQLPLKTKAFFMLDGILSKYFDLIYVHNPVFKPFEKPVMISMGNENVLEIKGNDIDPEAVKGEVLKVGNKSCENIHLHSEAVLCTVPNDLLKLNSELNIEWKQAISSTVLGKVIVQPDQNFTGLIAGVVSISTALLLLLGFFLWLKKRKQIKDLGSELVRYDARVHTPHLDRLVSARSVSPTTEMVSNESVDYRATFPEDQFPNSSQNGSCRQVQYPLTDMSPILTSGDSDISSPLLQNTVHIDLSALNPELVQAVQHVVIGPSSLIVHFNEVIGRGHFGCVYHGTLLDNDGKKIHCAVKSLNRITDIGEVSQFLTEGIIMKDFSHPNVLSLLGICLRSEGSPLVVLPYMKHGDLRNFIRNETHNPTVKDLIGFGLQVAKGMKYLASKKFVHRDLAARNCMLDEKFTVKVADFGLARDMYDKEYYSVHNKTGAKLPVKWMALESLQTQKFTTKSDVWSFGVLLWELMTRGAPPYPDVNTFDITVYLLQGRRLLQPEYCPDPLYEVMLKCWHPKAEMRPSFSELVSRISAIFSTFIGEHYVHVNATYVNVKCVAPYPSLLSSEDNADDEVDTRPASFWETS

C[C@@H](c1ccc2nccn2c1)n1nnc2ncc(-c3cnn(C)c3)nc21 [savolitinib, (S)-1-(1-(Imidazo[1,2-a]pyridin-6-yl)ethyl)-6-(1-methyl-1H-pyrazol-4-yl)-1H-[1,2, 3]triazolo[4,5-b]pyrazine] showed a pIC50 of 8.39.
